In ChEMBL document CHEMBL2169792, “Synthesis of new 4-thiazolidinone-, pyrazoline-, and isatin-based conjugates with promising antitumor activity” (J Med Chem, 2012):

Columns and labels:
Type in all cases: functional
[1] = Cytotoxicity against human CNS cancer cells after 48 hrs by SRB assay; conditions: Cancer cell lines
[2] = Cytotoxicity against human renal cancer cells after 48 hrs by SRB assay; conditions: Cancer cell lines
[3] = Cytotoxicity against human ovarian cancer cells after 48 hrs by SRB assay; conditions: Cancer cell lines
[4] = Cytotoxicity against human breast cancer cells after 48 hrs by SRB assay; conditions: Cancer cell lines
[5] = Cytotoxicity against human colon cancer cells after 48 hrs by SRB assay; conditions: Cancer cell lines
[6] = Cytotoxicity against human melanoma cells after 48 hrs by SRB assay; conditions: Melanoma cell; for CC50: read-out: LC50 (the source's name)
[7] = Cytotoxicity against human prostate cancer cells after 48 hrs by SRB assay; conditions: Cancer cell lines
U-251 = experiment: Cytotoxicity against human U251 cells assessed as cell growth at 10 uM after 48 hrs by SRB assay; conditions: U-251, 48 h, read-out: Activity
[8] = Cytotoxicity against human leukemia cells after 48 hrs by SRB assay; conditions: Leukemia cell; for CC50: read-out: LC50 (the source's name)
[9] = Cytotoxicity against human non-small cell lung cancer cells after 48 hrs by SRB assay; conditions: Cancer cell lines; for CC50: read-out: LC50 (the source's name)
NCI-H522 = experiment: Cytotoxicity against human NCI-H522 cells assessed as cell growth at 10 uM after 48 hrs by SRB assay; conditions: NCI-H522, 48 h, read-out: Activity

Structure (SMILES): COc1ccc(C2=NN(C3=NC(=O)/C(=C4\C(=O)Nc5ccc(Br)cc54)S3)C(c3ccc(OC)cc3)C2)cc1 (stereo not given)
- GI50 [1]: 0.2 µM
- LC50 (concentration giving 50% net cell kill) [1]: 70.2 µM
- TGI [1]: 0.405 µM
- GI50 [2]: 0.2 µM
- LC50 [2]: 64.6 µM
- TGI [2]: 0.38 µM
- GI50 [3]: 0.24 µM
- LC50 (concentration causing 50% net cell kill) [3]: 78.7 µM
- TGI [3]: 32.5 µM
- GI50 [4]: 0.21 µM
- LC50 (concentration causing 50% net cell kill) [4]: 66.9 µM
- TGI [4]: 0.48 µM
- GI50 [5]: 0.2 µM
- LC50 (concentration lethal to 50% of cells) [5]: 50.4 µM
- TGI [5]: 25.3 µM
- GI50 [6]: 0.19 µM
- TGI [6]: 0.41 µM
- CC50 [6]: 17.3 µM
- GI50 [7]: 0.27 µM
- LC50 [7]: 100 µM
- TGI [7]: 0.71 µM
- growth at 10 µM (U-251): 23.9%
- GI50 [8]: 0.28 µM
- TGI [8]: 62.7 µM
- CC50 [8]: 100 µM
- GI50 [9]: 0.2 µM
- TGI [9]: 0.43 µM
- CC50 [9]: 75.2 µM

Structure (SMILES): COc1ccc(C2=NN(C3=NC(=O)/C(=C4\C(=O)N(C)c5ccccc54)S3)C(c3ccc(Cl)cc3)C2)cc1 (stereo not given)
- growth at 10 µM (NCI-H522): 102%

Structure (SMILES): COc1ccc(-c2cc(-c3ccc(OC)cc3)n(C3C(=O)Nc4ccc(Br)cc43)n2)cc1 (stereo not given)
- growth at 10 µM (NCI-H522): 88.6%

Structure (SMILES): COc1ccc(C2=NN(C3=NC(=O)/C(=C4\C(=O)Nc5ccccc54)S3)C(c3ccc(OC)cc3)C2)cc1 (stereo not given)
- GI50 [1]: 43.9 µM
- LC50 (concentration giving 50% net cell kill) [1]: 100 µM
- TGI [1]: 89.2 µM
- GI50 [2]: 85.2 µM
- LC50 [2]: 100 µM
- TGI [2]: 100 µM
- GI50 [3]: 92.2 µM
- LC50 (concentration causing 50% net cell kill) [3]: 100 µM
- TGI [3]: 100 µM
- GI50 [4]: 81.5 µM
- LC50 (concentration causing 50% net cell kill) [4]: 100 µM
- TGI [4]: 99.6 µM
- GI50 [5]: 100 µM
- LC50 (concentration lethal to 50% of cells) [5]: 100 µM
- TGI [5]: 100 µM
- GI50 [6]: 100 µM
- TGI [6]: 100 µM
- CC50 [6]: 100 µM
- GI50 [7]: 100 µM
- LC50 [7]: 100 µM
- TGI [7]: 100 µM
- growth at 10 µM (U-251): 44.7%
- GI50 [8]: 100 µM
- TGI [8]: 100 µM
- CC50 [8]: 100 µM
- GI50 [9]: 88.1 µM
- TGI [9]: 91.5 µM
- CC50 [9]: 100 µM

Structure (SMILES): COc1ccc(C2=NN(C3=NC(=O)/C(=C4\C(=O)Nc5ccc(Cl)cc54)S3)C(c3ccc(Cl)cc3)C2)cc1 (stereo not given)
- GI50 [1]: 0.19 µM
- LC50 (concentration giving 50% net cell kill) [1]: 12.7 µM
- TGI [1]: 0.43 µM
- GI50 [2]: 0.2 µM
- LC50 [2]: 13.8 µM
- TGI [2]: 0.46 µM
- GI50 [3]: 0.27 µM
- LC50 (concentration causing 50% net cell kill) [3]: 31.3 µM
- TGI [3]: 7.97 µM
- GI50 [4]: 0.2 µM
- LC50 (concentration causing 50% net cell kill) [4]: 25.7 µM
- TGI [4]: 0.47 µM
- GI50 [5]: 0.21 µM
- LC50 (concentration lethal to 50% of cells) [5]: 8.2 µM
- TGI [5]: 0.45 µM
- GI50 [6]: 0.2 µM
- TGI [6]: 0.44 µM
- CC50 [6]: 1.21 µM
- GI50 [7]: 0.27 µM
- LC50 [7]: 76.2 µM
- TGI [7]: 0.74 µM
- growth at 10 µM (U-251): -58%
- GI50 [8]: 0.27 µM
- TGI [8]: 0.89 µM
- CC50 [8]: 91.1 µM
- GI50 [9]: 0.2 µM
- TGI [9]: 0.46 µM
- CC50 [9]: 7.93 µM

Structure (SMILES): COc1ccc(C2CC(c3ccc4ccccc4c3)=NN2C2=NC(=O)/C(=C3\C(=O)Nc4ccccc43)S2)cc1 (stereo not given)
- GI50 [1]: 0.67 µM
- LC50 (concentration giving 50% net cell kill) [1]: 48.2 µM
- TGI [1]: 12.6 µM
- GI50 [2]: 0.87 µM
- LC50 [2]: 51.3 µM
- TGI [2]: 13.6 µM
- GI50 [3]: 0.97 µM
- LC50 (concentration causing 50% net cell kill) [3]: 66.9 µM
- TGI [3]: 24.2 µM
- GI50 [4]: 5.96 µM
- LC50 (concentration causing 50% net cell kill) [4]: 73.7 µM
- TGI [4]: 32.8 µM
- GI50 [5]: 1.68 µM
- LC50 (concentration lethal to 50% of cells) [5]: 38.3 µM
- TGI [5]: 12.4 µM
- GI50 [6]: 4.8 µM
- TGI [6]: 27 µM
- CC50 [6]: 64.1 µM
- GI50 [7]: 0.36 µM
- LC50 [7]: 100 µM
- TGI [7]: 2.47 µM
- growth at 10 µM (U-251): -26.3%
- GI50 [8]: 17.5 µM
- TGI [8]: 59.6 µM
- CC50 [8]: 97.5 µM
- GI50 [9]: 0.62 µM
- TGI [9]: 4.03 µM
- CC50 [9]: 48.7 µM

Structure (SMILES): O=C1Nc2ccccc2C1n1nc(-c2ccc3ccccc3c2)cc1-c1ccc(Cl)cc1 (stereo not given)
- growth at 10 µM (NCI-H522): 90.8%

Structure (SMILES): CN(C)c1ccc(C2CC(c3ccccc3)=NN2C2=NC(=O)/C(=C3\C(=O)Nc4ccc(Br)cc43)S2)cc1 (stereo not given)
- GI50 [1]: 0.21 µM
- LC50 (concentration giving 50% net cell kill) [1]: 12.3 µM
- TGI [1]: 0.45 µM
- GI50 [2]: 0.2 µM
- LC50 [2]: 7.47 µM
- TGI [2]: 0.45 µM
- GI50 [3]: 0.25 µM
- LC50 (concentration causing 50% net cell kill) [3]: 39.6 µM
- TGI [3]: 0.69 µM
- GI50 [4]: 0.22 µM
- LC50 (concentration causing 50% net cell kill) [4]: 18.7 µM
- TGI [4]: 0.51 µM
- GI50 [5]: 0.2 µM
- LC50 (concentration lethal to 50% of cells) [5]: 1.22 µM
- TGI [5]: 0.42 µM
- GI50 [6]: 0.2 µM
- TGI [6]: 0.46 µM
- CC50 [6]: 7.65 µM
- GI50 [7]: 0.27 µM
- LC50 [7]: 55.3 µM
- TGI [7]: 0.72 µM
- growth at 10 µM (U-251): -51.1%
- GI50 [8]: 0.31 µM
- TGI [8]: 1.29 µM
- CC50 [8]: 84.8 µM
- GI50 [9]: 0.22 µM
- TGI [9]: 0.54 µM
- CC50 [9]: 17 µM

Structure (SMILES): Cc1ccc2c(c1)/C(=C1\SC(N3N=C(c4ccccc4)CC3c3ccc(Cl)cc3)=NC1=O)C(=O)N2 (stereo not given)
- GI50 [1]: 0.24 µM
- LC50 (concentration giving 50% net cell kill) [1]: 75.2 µM
- TGI [1]: 0.32 µM
- GI50 [2]: 0.24 µM
- LC50 [2]: 100 µM
- TGI [2]: 0.52 µM
- GI50 [3]: 0.26 µM
- LC50 (concentration causing 50% net cell kill) [3]: 100 µM
- GI50 [4]: 0.8 µM
- LC50 (concentration causing 50% net cell kill) [4]: 100 µM
- TGI [4]: 100 µM
- GI50 [5]: 0.23 µM
- LC50 (concentration lethal to 50% of cells) [5]: 100 µM
- TGI [5]: 0.35 µM
- GI50 [6]: 0.3 µM
- TGI [6]: 0.67 µM
- CC50 [6]: 100 µM
- GI50 [7]: 0.31 µM
- LC50 [7]: 100 µM
- growth at 10 µM (U-251): -54%
- GI50 [8]: 0.39 µM
- TGI [8]: 39.4 µM
- CC50 [8]: 85.2 µM
- GI50 [9]: 0.21 µM
- TGI [9]: 0.62 µM
- CC50 [9]: 100 µM

Structure (SMILES): COc1ccc(-c2cc(-c3ccc(OC)cc3)n(C3C(=O)Nc4ccc(Cl)cc43)n2)cc1 (stereo not given)
- growth at 10 µM (NCI-H522): 82%

Structure (SMILES): COc1ccc(C2=NN(C3=NC(=O)/C(=C4\C(=O)Nc5ccc(Cl)cc54)S3)C(c3ccc(OC)cc3)C2)cc1 (stereo not given)
- GI50 [1]: 0.2 µM
- LC50 (concentration giving 50% net cell kill) [1]: 35.5 µM
- TGI [1]: 0.42 µM
- GI50 [2]: 0.19 µM
- LC50 [2]: 50.5 µM
- TGI [2]: 0.39 µM
- GI50 [3]: 0.23 µM
- LC50 (concentration causing 50% net cell kill) [3]: 83.5 µM
- TGI [3]: 21.2 µM
- GI50 [4]: 0.22 µM
- LC50 (concentration causing 50% net cell kill) [4]: 75.2 µM
- TGI [4]: 0.5 µM
- GI50 [5]: 0.21 µM
- LC50 (concentration lethal to 50% of cells) [5]: 58.7 µM
- TGI [5]: 0.43 µM
- GI50 [6]: 0.19 µM
- TGI [6]: 0.38 µM
- CC50 [6]: 33.9 µM
- GI50 [7]: 0.25 µM
- LC50 [7]: 100 µM
- TGI [7]: 0.71 µM
- GI50 [8]: 0.28 µM
- TGI [8]: 75.2 µM
- CC50 [8]: 100 µM
- GI50 [9]: 0.2 µM
- TGI [9]: 0.44 µM
- CC50 [9]: 64.2 µM
- growth at 10 µM (NCI-H522): 0.8%

Structure (SMILES): O=C1Nc2ccccc2C1n1nc(-c2ccccc2)cc1-c1ccc(Cl)cc1 (stereo not given)
- growth at 10 µM (NCI-H522): 76.6%

Structure (SMILES): COc1ccc(-c2cc(-c3ccc(OC)cc3)n(C3C(=O)Nc4ccccc43)n2)cc1 (stereo not given)
- growth at 10 µM (NCI-H522): 87.5%
